Organism: Rattus norvegicus
Assay: Open TG-GATES - Regimen: Daily Repeat
Format: toxicity, organism-based, Sprague-Dawley
Set-up: regimen Daily Repeat, gender Male, age 6 weeks
Settings: in vivo, iv, route intravenous injection; for Bas / Eos / Fbg / Ht / Lym / MCH / MCHC / MCV / Mono / PT / RBC / Ret / WBC: tissue Blood; for KIDNEY_L / KIDNEY_R / KIDNEY_TOTAL: tissue Kidney; for ALP / AST / CRE / DBIL / GLC / IP / K / Na / PL / RALB / TBIL / TG / TP / gamma-GTP / TC: tissue Plasma
[1] = 0 mg/kg, 72 h, dose level Control, time 3 day
[2] = 0 mg/kg, […], dose level Control, time 7 day
[3] = 0 mg/kg, […], dose level Control, time 14 day
[4] = 0 mg/kg, […], dose level Control, time 28 day
[5] = 1 mg/kg, 72 h, dose level High, time 3 day
[6] = 1 mg/kg, […], dose level High, time 7 day
[7] = 1 mg/kg, […], dose level High, time 14 day
[8] = 1 mg/kg, […], dose level High, time 28 day

Compound: COc1cccc2c1C(=O)c1c(O)c3c(c(O)c1C2=O)C[C@@](O)(C(=O)CO)C[C@@H]3O[C@H]1C[C@H](N)[C@H](O)[C@H](C)O1 [DOXORUBICIN]
- TERMINAL_BW [1]: 230.2 g
- Bas [1]: 0%
- Eos [1]: 0.8%
- Fbg [1]: 276.4 mg/dL
- Ht [1]: 37.6%
- Lym [1]: 80%
- MCH [1]: 21.3 pg
- MCHC [1]: 34.2%
- MCV [1]: 62.3 fL
- Mono [1]: 2.8%
- PT [1]: 16.3 s
- RBC [1]: 603.8 x10_4/ul
- Ret [1]: 5.8%
- WBC [1]: 107.3 x10_2/uL
- KIDNEY_L [1]: 1 g
- KIDNEY_R [1]: 1 g
- KIDNEY_TOTAL [1]: 2 g
- ALP [1]: 1504.4 IU/L
- AST [1]: 70.6 IU/L
- CRE [1]: 0.2 mg/dL
- DBIL [1]: 0.002 mg/dL
- GLC [1]: 193.8 mg/dL
- IP [1]: 6.9 mg/dL
- K [1]: 4.8 meq/L
- Na [1]: 141 meq/L
- PL [1]: 141 mg/dL
- RALB [1]: 3 g/dL
- TBIL [1]: 0.006 mg/dL
- TG [1]: 86.6 mg/dL
- TP [1]: 5.4 g/dL
- gamma-GTP [1]: 1.4 IU/L
- TERMINAL_BW [2]: 251.1 g
- TERMINAL_BW [3]: 307.3 g
- TERMINAL_BW [4]: 382.5 g
- Bas [2]: 0%
- Eos [2]: 0.6%
- Fbg [2]: 285.8 mg/dL
- Ht [2]: 38.4%
- Lym [2]: 77.4%
- MCH [2]: 20.8 pg
- MCHC [2]: 35.3%
- MCV [2]: 58.9 fL
- Mono [2]: 2.8%
- PT [2]: 16.5 s
- RBC [2]: 652.8 x10_4/ul
- Ret [2]: 5.5%
- WBC [2]: 121 x10_2/uL
- Bas [3]: 0%
- Eos [3]: 0.8%
- Fbg [3]: 305.6 mg/dL
- Ht [3]: 39.4%
- Lym [3]: 82.2%
- MCH [3]: 20.5 pg
- MCHC [3]: 35.8%
- MCV [3]: 57 fL
- Mono [3]: 2.2%
- PT [3]: 16.1 s
- RBC [3]: 691.8 x10_4/ul
- Ret [3]: 4.8%
- WBC [3]: 124.7 x10_2/uL
- Bas [4]: 0%
- Eos [4]: 1.4%
- Fbg [4]: 305.6 mg/dL
- Ht [4]: 42.7%
- Lym [4]: 85.6%
- MCH [4]: 19.6 pg
- MCHC [4]: 36.3%
- MCV [4]: 54 fL
- Mono [4]: 2%
- PT [4]: 16.4 s
- RBC [4]: 792.2 x10_4/ul
- Ret [4]: 2.9%
- WBC [4]: 144.2 x10_2/uL
- KIDNEY_L [2]: 1.1 g
- KIDNEY_R [2]: 1.1 g
- KIDNEY_TOTAL [2]: 2.2 g
- KIDNEY_L [3]: 1.2 g
- KIDNEY_R [3]: 1.2 g
- KIDNEY_TOTAL [3]: 2.3 g
- KIDNEY_L [4]: 1.4 g
- KIDNEY_R [4]: 1.4 g
- KIDNEY_TOTAL [4]: 2.7 g
- ALP [2]: 1305.8 IU/L
- AST [2]: 67 IU/L
- CRE [2]: 0.2 mg/dL
- DBIL [2]: 0 mg/dL
- GLC [2]: 188.2 mg/dL
- IP [2]: 7.2 mg/dL
- K [2]: 4.5 meq/L
- Na [2]: 142.2 meq/L
- RALB [2]: 2.9 g/dL
- TBIL [2]: 0.014 mg/dL
- TC [2]: 74.4 mg/dL
- TG [2]: 100.2 mg/dL
- TP [2]: 5.3 g/dL
- gamma-GTP [2]: 1.2 IU/L
- ALP [3]: 1239.2 IU/L
- AST [3]: 59.2 IU/L
- CRE [3]: 0.2 mg/dL
- DBIL [3]: 0 mg/dL
- GLC [3]: 203 mg/dL
- IP [3]: 6.9 mg/dL
- K [3]: 4.4 meq/L
- Na [3]: 140.8 meq/L
- RALB [3]: 3.1 g/dL
- TBIL [3]: 0.018 mg/dL
- TC [3]: 69 mg/dL
- TG [3]: 129.2 mg/dL
- TP [3]: 5.7 g/dL
- gamma-GTP [3]: 2.6 IU/L
- ALP [4]: 795.8 IU/L
- AST [4]: 64.8 IU/L
- CRE [4]: 0.3 mg/dL
- DBIL [4]: 0 mg/dL
- GLC [4]: 186.6 mg/dL
- IP [4]: 6.7 mg/dL
- K [4]: 4.1 meq/L
- Na [4]: 140.6 meq/L
- PL [4]: 130.8 mg/dL
- RALB [4]: 3.1 g/dL
- TBIL [4]: 0.006 mg/dL
- TC [4]: 65 mg/dL
- TG [4]: 96.2 mg/dL
- TP [4]: 6.1 g/dL
- gamma-GTP [4]: 1 IU/L
- TERMINAL_BW [5]: 213.7 g
- Bas [5]: 0%
- Eos [5]: 1%
- Fbg [5]: 293 mg/dL
- Ht [5]: 37.6%
- Lym [5]: 83.6%
- MCH [5]: 21.4 pg
- MCHC [5]: 35%
- MCV [5]: 61.1 fL
- Mono [5]: 2.4%
- PT [5]: 16.3 s
- RBC [5]: 616 x10_4/ul
- Ret [5]: 1%
- WBC [5]: 40.5 x10_2/uL
- KIDNEY_L [5]: 0.9 g
- KIDNEY_R [5]: 0.9 g
- KIDNEY_TOTAL [5]: 1.8 g
- ALP [5]: 1562.4 IU/L
- AST [5]: 64.4 IU/L
- CRE [5]: 0.2 mg/dL
- DBIL [5]: 0 mg/dL
- GLC [5]: 194.4 mg/dL
- IP [5]: 7 mg/dL
- K [5]: 4.3 meq/L
- Na [5]: 141.4 meq/L
- RALB [5]: 3.1 g/dL
- TBIL [5]: 0.014 mg/dL
- TC [5]: 79 mg/dL
- TG [5]: 78.2 mg/dL
- TP [5]: 5.6 g/dL
- gamma-GTP [5]: 1.4 IU/L
- TERMINAL_BW [6]: 236 g
- TERMINAL_BW [7]: 244.4 g
- TERMINAL_BW [8]: 221.9 g
- Bas [6]: 0%
- Eos [6]: 1.4%
- Fbg [6]: 307.2 mg/dL
- Ht [6]: 34.1%
- Lym [6]: 84.2%
- MCH [6]: 20.5 pg
- MCHC [6]: 36.1%
- MCV [6]: 56.8 fL
- Mono [6]: 2.4%
- PT [6]: 16.1 s
- RBC [6]: 600.6 x10_4/ul
- Ret [6]: 0.06%
- WBC [6]: 32.9 x10_2/uL
- Bas [7]: 0%
- Eos [7]: 0.4%
- Fbg [7]: 315.6 mg/dL
- Ht [7]: 31.5%
- Lym [7]: 76.8%
- MCH [7]: 20.6 pg
- MCHC [7]: 37.1%
- MCV [7]: 55.7 fL
- Mono [7]: 1%
- RBC [7]: 566.8 x10_4/ul
- Ret [7]: 0.04%
- WBC [7]: 14.2 x10_2/uL
- Bas [8]: 0%
- Eos [8]: 0.5%
- Fbg [8]: 669 mg/dL
- Lym [8]: 31.5%
- MCH [8]: 18.1 pg
- MCHC [8]: 38%
- MCV [8]: 47.6 fL
- Mono [8]: 8%
- PT [8]: 15.1 s
- RBC [8]: 301.5 x10_4/ul
- Ret [8]: 0.2%
- WBC [8]: 44.9 x10_2/uL
- KIDNEY_L [6]: 1 g
- KIDNEY_R [6]: 1 g
- KIDNEY_TOTAL [6]: 2 g
- KIDNEY_L [7]: 1 g
- KIDNEY_R [7]: 1 g
- KIDNEY_TOTAL [7]: 2 g
- KIDNEY_L [8]: 1.4 g
- KIDNEY_R [8]: 1.4 g
- KIDNEY_TOTAL [8]: 2.8 g
- ALP [6]: 963 IU/L
- AST [6]: 66.6 IU/L
- CRE [6]: 0.2 mg/dL
- DBIL [6]: 0 mg/dL
- GLC [6]: 199.6 mg/dL
- IP [6]: 7.3 mg/dL
- K [6]: 4.5 meq/L
- Na [6]: 142.8 meq/L
- PL [6]: 170.4 mg/dL
- RALB [6]: 3 g/dL
- TBIL [6]: 0.018 mg/dL
- TC [6]: 88.8 mg/dL
- TG [6]: 110.2 mg/dL
- TP [6]: 5.6 g/dL
- gamma-GTP [6]: 1.6 IU/L
- ALP [7]: 635.6 IU/L
- AST [7]: 56.4 IU/L
- CRE [7]: 0.2 mg/dL
- DBIL [7]: 0.002 mg/dL
- GLC [7]: 200.8 mg/dL
- K [7]: 4.1 meq/L
- Na [7]: 142 meq/L
- RALB [7]: 2.9 g/dL
- TBIL [7]: 0.032 mg/dL
- TC [7]: 90.8 mg/dL
- TG [7]: 110.4 mg/dL
- TP [7]: 5.4 g/dL
- gamma-GTP [7]: 1.4 IU/L
- ALP [8]: 339 IU/L
- AST [8]: 39.5 IU/L
- CRE [8]: 0.2 mg/dL
- DBIL [8]: 0 mg/dL
- GLC [8]: 197 mg/dL
- IP [8]: 5.6 mg/dL
- K [8]: 3.9 meq/L
- Na [8]: 141.5 meq/L
- PL [8]: 357.5 mg/dL
- RALB [8]: 1.6 g/dL
- TBIL [8]: 0 mg/dL
- TC [8]: 233 mg/dL
- TG [8]: 309 mg/dL
- TP [8]: 4.5 g/dL
- gamma-GTP [8]: 14.5 IU/L

Reference: ChEMBL document CHEMBL3885861, “Open TG-GATES”
